# Calls of active or inactive are those of the source.
# Legend:
# [1] = molecular target: Beta-galactosidase (Escherichia coli, UniProt Q8VNN2); assay: PubChem AID 485352; assay type: functional
# [2] = inhibitors of intracellular T. cruzi replication, confirmation, NIH3T3 host cells, beta-gal luminescence (AID 2044); assay type: functional, cell-based;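 also: intracellular parasites grown in NIH/3T3 mouse fibroblasts as host cells; luminescent beta-galactosidase reporter signal from transgenic T. cruzi replicating inside host cells; inhibitors lower the luminescence signal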
# [3] = C. albicans growth with fluconazole, confirmation, fluorescence, retest (AID 2467); assay type: functional, cell-based
# [4] = cytotoxicity toward NIH3T3 fibroblasts, dose response, counter-screen, cell-based, ATP luminescence, mouse fibroblasts (AID 2010); assay type: functional;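 also: cells exposed to compound for about 90 hours before reading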
# [5] = molecular target: T1, Type-1 angiotensin II receptor (Homo sapiens, UniProt P30556); assay: AT1 receptor antagonists, dose response, selectivity assay for APJ receptor antagonist project, cell-based, uHTS hits (AID 463214); assay type: functional;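 also: antagonist potency against angiotensin II stimulated AT1 response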
# T1 sequence (P30556 whole entry): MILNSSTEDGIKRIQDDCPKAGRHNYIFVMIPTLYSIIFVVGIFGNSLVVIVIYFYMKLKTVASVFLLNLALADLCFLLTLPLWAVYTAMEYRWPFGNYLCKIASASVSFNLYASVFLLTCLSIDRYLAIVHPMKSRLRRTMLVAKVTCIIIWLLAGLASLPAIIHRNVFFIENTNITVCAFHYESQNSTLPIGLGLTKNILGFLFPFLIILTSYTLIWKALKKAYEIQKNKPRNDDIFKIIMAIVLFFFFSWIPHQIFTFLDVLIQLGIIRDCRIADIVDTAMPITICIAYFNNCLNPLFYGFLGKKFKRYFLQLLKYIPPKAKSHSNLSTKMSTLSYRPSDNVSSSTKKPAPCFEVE
# [6] = NIH-3T3 fibroblast cytotoxicity, dose response, cytotoxicity control, cell-based, fluorescence, Alamar Blue, secondary assay (AID 2327); assay type: functional;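 also: NIH-3T3 mouse fibroblasts cultured with fluconazole at 8 µg/mL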
# [7] = nonselective inhibitors of cellular cAMP signaling, dose response, counter-screen for MC4R biased antagonist project, cell-based, TR-FRET cAMP detection (AID 602305); assay type: functional;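 also: U2OS cells stimulated with forskolin near its EC80 as the cAMP inducer; potency is for inhibition of forskolin-stimulated cAMP signaling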
# [8] = molecular target: T2, Melanocortin receptor 4 (Homo sapiens, UniProt P32245); assay: MC4R antagonist potency on cAMP, dose response, cell-based, TR-FRET, biased antagonists (AID 602298); assay type: functional;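 also: antagonist potency against agonist-stimulated cAMP production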
# T2 sequence (P32245 whole entry): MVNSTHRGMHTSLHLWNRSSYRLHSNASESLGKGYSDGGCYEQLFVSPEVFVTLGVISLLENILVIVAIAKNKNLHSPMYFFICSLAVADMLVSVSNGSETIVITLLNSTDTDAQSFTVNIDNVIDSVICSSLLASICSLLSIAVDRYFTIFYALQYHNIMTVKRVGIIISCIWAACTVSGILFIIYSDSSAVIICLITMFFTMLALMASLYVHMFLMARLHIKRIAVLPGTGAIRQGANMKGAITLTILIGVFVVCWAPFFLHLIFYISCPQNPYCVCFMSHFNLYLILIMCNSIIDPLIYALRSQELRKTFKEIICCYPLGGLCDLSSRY
# [9] = molecular target: T3, Nuclear receptor subfamily 0 group B member 1 (Homo sapiens, UniProt P51843); assay: Luminescence-based cell-based high throughput dose response assay for inhibitors of the orphan nuclear receptor subfamily 0, group B, member 1 (DAX1; NR0B1). [Related pubchem assays (depositor defined):AID504766, AID504790]; assay type: functional
# T3 sequence (P51843 whole entry): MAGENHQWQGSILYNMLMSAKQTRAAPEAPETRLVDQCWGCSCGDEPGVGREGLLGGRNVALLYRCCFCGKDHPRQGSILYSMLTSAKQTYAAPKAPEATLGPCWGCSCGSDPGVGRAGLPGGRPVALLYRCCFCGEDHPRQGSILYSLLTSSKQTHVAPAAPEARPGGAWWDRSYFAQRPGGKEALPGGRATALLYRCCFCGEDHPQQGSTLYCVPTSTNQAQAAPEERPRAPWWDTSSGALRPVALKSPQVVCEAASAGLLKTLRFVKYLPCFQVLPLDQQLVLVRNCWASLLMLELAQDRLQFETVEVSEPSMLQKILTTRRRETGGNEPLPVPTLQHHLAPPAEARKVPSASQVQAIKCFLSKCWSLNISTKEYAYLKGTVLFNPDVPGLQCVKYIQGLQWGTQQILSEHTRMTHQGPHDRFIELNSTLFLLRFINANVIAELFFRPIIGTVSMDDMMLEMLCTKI
# [10] = tested on: HEK293; assay: cells; assay type: functional, cell-based; settings: Homo sapiens
# [11] = HEp-2 cell cytotoxicity, dose response, cytotoxicity control for RSV inhibitor project, HTS (AID 2410); assay type: functional; settings: human respiratory syncytial virus
# [12] = microbe, parasite or virus in culture; assay type: functional; settings: Mycobacterium tuberculosis
# [13] = molecular target: T4, Ubiquitin-conjugating enzyme E2 N (Homo sapiens, UniProt P61088); assay type: functional;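 also: Dose-response confirmation in a TR-FRET assay detecting UBC13-driven polyubiquitin chain formation, inhibition measured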
# T4 sequence (P61088 whole entry): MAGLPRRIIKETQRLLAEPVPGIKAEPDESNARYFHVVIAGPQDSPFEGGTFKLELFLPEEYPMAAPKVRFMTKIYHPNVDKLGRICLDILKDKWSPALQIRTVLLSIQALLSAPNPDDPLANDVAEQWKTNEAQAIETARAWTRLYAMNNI
# [14] = Luminescence Cell-Based Dose Response HTS to Identify Inhibitors of 5'UTR Stem-Loop Driven Prion Protein mRNA Translation in H4 Neuroglioblastoma Cells. [Related pubchem assays: 1827 (Project Summary), 1813 (Primary HTS)]; assay type: functional
# [15] = molecular target: T2, Melanocortin receptor 4; assay type: functional, cell-based
# [16] = inhibitors of SNCA 5'UTR-driven reporter translation, confirmation, H4 neuroglioma cells, luminescence (AID 1988); assay type: functional, cell-based
# [17] = growth suppression of beta-catenin-knockout colon cells, dose response, cell-based, HCT116, human colon tumor (AID 1045); assay type: functional;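 also: HCT116 colon tumor cells with beta catenin knocked out; cells exposed to compound for 60 hours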
# [18] = growth suppression of PTEN-null colon cells, dose response, cell-based, HCT116 PTEN knockout (AID 1047); assay type: functional;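 also: HCT116 colon tumor cells with PTEN knocked out; cells exposed to compound for 60 hours before readout; potency for loss of cell viability measured by luminescence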
# [19] = molecular target: T5, Sentrin-specific protease 7 (Homo sapiens, UniProt Q9BQF6); assay: SENP7 protease inhibitors, SAR follow-up, biochemical, luminescence (AID 504497); assay type: functional
# T5 sequence (Q9BQF6 whole entry): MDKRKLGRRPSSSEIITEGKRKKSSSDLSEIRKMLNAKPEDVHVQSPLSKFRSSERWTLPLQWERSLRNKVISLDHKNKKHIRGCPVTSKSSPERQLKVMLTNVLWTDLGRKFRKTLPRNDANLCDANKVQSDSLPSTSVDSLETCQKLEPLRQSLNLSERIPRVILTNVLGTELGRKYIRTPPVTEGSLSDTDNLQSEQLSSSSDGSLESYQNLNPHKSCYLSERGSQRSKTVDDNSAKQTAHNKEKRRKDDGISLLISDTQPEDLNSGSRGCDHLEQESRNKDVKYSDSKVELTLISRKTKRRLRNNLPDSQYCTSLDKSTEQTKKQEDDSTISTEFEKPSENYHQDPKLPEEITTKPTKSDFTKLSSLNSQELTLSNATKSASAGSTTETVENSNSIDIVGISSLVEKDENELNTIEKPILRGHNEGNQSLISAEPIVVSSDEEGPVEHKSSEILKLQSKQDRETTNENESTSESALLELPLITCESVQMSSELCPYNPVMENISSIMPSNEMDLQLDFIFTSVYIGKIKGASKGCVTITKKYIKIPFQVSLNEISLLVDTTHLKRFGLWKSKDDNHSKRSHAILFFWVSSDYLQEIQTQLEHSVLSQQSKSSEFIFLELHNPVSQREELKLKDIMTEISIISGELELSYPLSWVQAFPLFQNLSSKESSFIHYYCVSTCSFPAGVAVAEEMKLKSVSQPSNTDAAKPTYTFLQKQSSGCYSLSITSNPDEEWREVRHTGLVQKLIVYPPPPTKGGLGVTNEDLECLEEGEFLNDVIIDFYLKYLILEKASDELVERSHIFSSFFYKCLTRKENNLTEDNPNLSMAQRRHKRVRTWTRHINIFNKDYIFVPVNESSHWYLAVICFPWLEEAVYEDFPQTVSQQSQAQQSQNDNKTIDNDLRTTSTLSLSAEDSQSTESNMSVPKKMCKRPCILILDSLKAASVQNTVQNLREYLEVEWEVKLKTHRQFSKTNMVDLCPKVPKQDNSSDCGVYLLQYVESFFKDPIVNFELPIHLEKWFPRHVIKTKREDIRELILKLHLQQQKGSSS
# [20] = molecular target: T6, Sentrin-specific protease 6 (Homo sapiens, UniProt Q9GZR1); assay: SAR Analysis of small molecule inhibitors of Sentrin-specific protease 6 (SENP6) using a Luminescent assay. [Related pubchem assays (depositor defined):AID2582, AID2599]; assay type: functional
# T6 sequence (Q9GZR1 whole entry): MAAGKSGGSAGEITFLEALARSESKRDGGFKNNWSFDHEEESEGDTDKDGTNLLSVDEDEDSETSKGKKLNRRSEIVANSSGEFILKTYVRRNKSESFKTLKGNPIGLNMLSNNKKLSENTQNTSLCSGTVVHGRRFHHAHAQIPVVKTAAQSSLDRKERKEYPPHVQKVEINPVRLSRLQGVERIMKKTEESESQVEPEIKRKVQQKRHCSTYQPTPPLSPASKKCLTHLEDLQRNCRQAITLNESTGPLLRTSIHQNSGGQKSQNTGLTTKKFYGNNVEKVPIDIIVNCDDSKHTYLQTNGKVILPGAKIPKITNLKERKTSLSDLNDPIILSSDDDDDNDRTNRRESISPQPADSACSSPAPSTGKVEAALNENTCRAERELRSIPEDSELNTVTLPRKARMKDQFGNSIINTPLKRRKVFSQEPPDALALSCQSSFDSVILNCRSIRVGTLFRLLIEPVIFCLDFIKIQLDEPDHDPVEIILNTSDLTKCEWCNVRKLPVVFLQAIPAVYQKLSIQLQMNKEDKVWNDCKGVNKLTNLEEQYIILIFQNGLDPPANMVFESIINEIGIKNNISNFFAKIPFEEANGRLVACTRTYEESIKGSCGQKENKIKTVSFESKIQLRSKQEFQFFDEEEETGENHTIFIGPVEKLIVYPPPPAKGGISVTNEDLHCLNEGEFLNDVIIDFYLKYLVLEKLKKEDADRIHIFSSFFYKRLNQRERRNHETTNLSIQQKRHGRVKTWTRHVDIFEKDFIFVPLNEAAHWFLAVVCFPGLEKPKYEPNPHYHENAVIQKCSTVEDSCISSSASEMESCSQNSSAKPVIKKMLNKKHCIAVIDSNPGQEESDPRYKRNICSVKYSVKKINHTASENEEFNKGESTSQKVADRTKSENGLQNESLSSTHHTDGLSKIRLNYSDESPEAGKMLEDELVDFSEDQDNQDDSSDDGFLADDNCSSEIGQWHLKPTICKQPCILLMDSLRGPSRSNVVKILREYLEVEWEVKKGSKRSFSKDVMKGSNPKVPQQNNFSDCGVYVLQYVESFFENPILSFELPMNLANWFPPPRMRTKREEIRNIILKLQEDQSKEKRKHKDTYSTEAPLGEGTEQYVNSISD
# [21] = molecular target: T7, Caspase-3 (Homo sapiens, UniProt P42574); assay: SAR Analysis of small molecule inhibitors of Sentrin-specific proteases (SENPs) using a Caspase-3 Selectivity assay. [Related pubchem assays (depositor defined):AID2540, AID2599, AID434973, AID489001]; assay type: functional
# T7 sequence (P42574 whole entry): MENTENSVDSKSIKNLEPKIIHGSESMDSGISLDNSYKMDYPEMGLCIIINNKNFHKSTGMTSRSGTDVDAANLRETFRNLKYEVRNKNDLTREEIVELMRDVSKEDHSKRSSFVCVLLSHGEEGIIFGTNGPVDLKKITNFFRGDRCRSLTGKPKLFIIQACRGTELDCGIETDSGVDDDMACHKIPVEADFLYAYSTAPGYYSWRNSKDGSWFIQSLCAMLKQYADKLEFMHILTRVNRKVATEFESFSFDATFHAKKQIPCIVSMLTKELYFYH
# [22] = molecular target: T8, Sentrin-specific protease 8 (Homo sapiens, UniProt Q96LD8); assay: SENP8 protease inhibitors, SAR follow-up, biochemical, luminescence (AID 504501); assay type: functional
# T8 sequence (Q96LD8 whole entry): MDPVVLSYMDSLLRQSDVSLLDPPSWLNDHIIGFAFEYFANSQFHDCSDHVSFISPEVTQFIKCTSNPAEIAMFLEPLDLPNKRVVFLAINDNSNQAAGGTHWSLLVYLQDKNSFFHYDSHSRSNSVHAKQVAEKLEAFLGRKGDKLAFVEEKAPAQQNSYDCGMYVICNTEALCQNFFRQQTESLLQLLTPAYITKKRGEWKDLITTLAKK
# Chain of Beta-galactosidase (Q8VNN2 whole entry): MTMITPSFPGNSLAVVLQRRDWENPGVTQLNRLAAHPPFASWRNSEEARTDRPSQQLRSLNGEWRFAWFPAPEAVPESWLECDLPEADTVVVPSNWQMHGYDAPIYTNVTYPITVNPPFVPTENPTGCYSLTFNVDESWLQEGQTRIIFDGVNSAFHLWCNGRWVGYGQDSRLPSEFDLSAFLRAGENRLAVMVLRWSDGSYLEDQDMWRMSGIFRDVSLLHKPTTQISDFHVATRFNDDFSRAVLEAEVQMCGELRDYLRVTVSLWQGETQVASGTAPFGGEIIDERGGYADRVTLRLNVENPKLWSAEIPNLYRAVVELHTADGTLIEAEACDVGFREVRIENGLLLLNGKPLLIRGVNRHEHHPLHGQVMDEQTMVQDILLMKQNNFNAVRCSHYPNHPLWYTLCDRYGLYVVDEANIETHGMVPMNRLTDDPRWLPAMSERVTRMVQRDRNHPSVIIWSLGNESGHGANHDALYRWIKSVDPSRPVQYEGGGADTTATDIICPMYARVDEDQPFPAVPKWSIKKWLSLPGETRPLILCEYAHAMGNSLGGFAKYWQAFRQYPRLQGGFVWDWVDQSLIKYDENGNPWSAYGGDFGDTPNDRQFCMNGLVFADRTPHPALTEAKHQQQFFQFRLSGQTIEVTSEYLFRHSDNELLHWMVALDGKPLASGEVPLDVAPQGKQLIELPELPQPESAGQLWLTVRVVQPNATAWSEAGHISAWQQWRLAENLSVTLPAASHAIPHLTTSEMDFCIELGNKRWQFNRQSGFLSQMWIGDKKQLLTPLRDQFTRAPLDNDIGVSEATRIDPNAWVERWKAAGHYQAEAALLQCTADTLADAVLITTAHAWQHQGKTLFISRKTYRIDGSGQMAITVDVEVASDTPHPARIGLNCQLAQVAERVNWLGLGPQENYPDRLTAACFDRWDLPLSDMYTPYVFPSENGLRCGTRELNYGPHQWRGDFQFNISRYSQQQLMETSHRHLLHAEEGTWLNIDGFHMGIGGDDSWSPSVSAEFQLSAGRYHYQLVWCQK
smiles,measurement,setting,value
CCCCCC1CCC(c2nnc(S)n2C)CC1 (centres undefined),EC50,[1],> 40 µM (inactive)
same,EC50,[2],1.92 µM (active)
same,EC50,[3],> 38 µM (not active)
same,EC50,[4],> 60 µM (not active)
same,IC50,[5],> 40 µM (not active)
same,EC50,[6],> 150 µM (inactive)
CC1CCCN(c2nc(-c3cccnc3)nc3scc(-c4ccccc4)c23)C1 (centres undefined),IC50,[7],> 64.6 µM (inactive)
same,IC50,[8],> 64.6 µM (inactive)
O=C(c1ccccc1)c1cnc(-c2ccccc2)s1,IC50,[9],> 67.6 µM (inactive)
same,IC50,[10],> 67.6 µM (inactive)
COc1ccc(-c2nc3ncccn3c2Br)cc1,CC50,[11],39.3 µM (active)
same,IC50,[9],> 67.6 µM (inactive)
same,IC50,[10],> 67.6 µM (inactive)
COc1ccccc1NC(=O)CCC(=O)OCC(=O)c1ccc(C)c([N+](=O)[O-])c1,EC50,[1],> 40 µM (inactive)
same,IC50,[5],33.7 µM (not active)
Brc1ccc(-c2csc(N3CCOCC3)n2)cc1,IC50,[9],> 67.5 µM (inactive)
same,IC50,[10],> 67.5 µM (inactive)
COC(=O)c1ccc(C2c3[nH]c4ccccc4c3C[C@H]3C(=O)N(C4CCN(Cc5ccccc5)CC4)CC(=O)N23)cc1 (some centres undefined),IC50,[7],> 64.6 µM (inactive)
same,IC50,[8],> 64.6 µM (inactive)
O=C(Cc1ccccc1)NCC(=O)OCC(=O)c1ccc(Cl)c([N+](=O)[O-])c1,EC50,[1],> 40 µM (inactive)
same,IC50,[5],9.37 µM (active)
CN(C)CCCNC(=O)c1ccc(-c2nc(-c3ccc(Cl)cc3)cs2)cc1,EC50,[1],> 40 µM (inactive)
same,CC50,[12],4.08 µM (active)
same,IC50,[13],> 20 µM (inactive)
same,EC50,[2],0.738 µM (active)
same,EC50,[3],3.33 µM (active)
same,EC50,[14],> 120 µM (not active)
same,EC50,[4],10.2 µM (active)
same,EC50,[15],> 9.91 µM (active)
same,EC50,[16],9.67 µM (inconclusive)
same,EC50,[17],2.25 µM (active)
same,EC50,[18],2.41 µM (active)
same,IC50,[5],22.6 µM (not active)
same,EC50,[6],44.4 µM (inconclusive)
NC(=O)CSc1nnc(-c2ccc(O)cc2)n1Cc1ccco1,IC50,[9],> 67.6 µM (inactive)
same,IC50,[10],> 67.6 µM (inactive)
Cc1cc(Cl)ccc1NC(=O)c1ccc2c(c1)OCO2,IC50,[19],34.6 µM (active)
same,IC50,[20],> 99 µM (inactive)
same,IC50,[21],28.1 µM (active)
same,IC50,[22],> 99 µM (inactive)
Oc1nnc(/C=C/c2ccc(F)cc2)o1,IC50,[19],> 99 µM (inactive)
same,IC50,[20],> 99 µM (inactive)
same,IC50,[21],> 99 µM (inactive)
same,IC50,[22],> 99 µM (inactive)
